Values joined by “and” are separate entries in the source; they are usually repeats but may differ in a detail not shown here. Identical values can stand only once. Like-named read-outs stand apart in the source and are kept apart here.
How the values were obtained:
[1] = molecular target: CYP1A2 (Homo sapiens, UniProt P05177); assay: Cytochrome P450 inhibition assay; format: in vitro ADME
Description: (§1) Cytochrome P450 (CYP450) Inhibition Assay. […] The reactions were initiated by adding 100 μL of a pre-warmed enzyme/substrate solution to the reaction tubes. A zero time-point control reaction was prepared by adding 50 μL of acetonitrile to 100 μL of cofactor solution to inactivate the enzymes, then adding 100 μL of enzyme/substrate solution. A control reaction with no inhibitor was also prepared. After a suitable incubation at 37° C., the reactions were terminated by the addition of 50 μL of acetonitrile. The reactions were analyzed for the metabolite forms of the probe substrate using LC/MS/MS. Each assay was performed in duplicate.

[2] = molecular target: CYP2C19 (Homo sapiens, UniProt P33261); assay: Cytochrome P450 inhibition assay; format: in vitro ADME
Sequence of CYP2C19 (P33261 whole entry): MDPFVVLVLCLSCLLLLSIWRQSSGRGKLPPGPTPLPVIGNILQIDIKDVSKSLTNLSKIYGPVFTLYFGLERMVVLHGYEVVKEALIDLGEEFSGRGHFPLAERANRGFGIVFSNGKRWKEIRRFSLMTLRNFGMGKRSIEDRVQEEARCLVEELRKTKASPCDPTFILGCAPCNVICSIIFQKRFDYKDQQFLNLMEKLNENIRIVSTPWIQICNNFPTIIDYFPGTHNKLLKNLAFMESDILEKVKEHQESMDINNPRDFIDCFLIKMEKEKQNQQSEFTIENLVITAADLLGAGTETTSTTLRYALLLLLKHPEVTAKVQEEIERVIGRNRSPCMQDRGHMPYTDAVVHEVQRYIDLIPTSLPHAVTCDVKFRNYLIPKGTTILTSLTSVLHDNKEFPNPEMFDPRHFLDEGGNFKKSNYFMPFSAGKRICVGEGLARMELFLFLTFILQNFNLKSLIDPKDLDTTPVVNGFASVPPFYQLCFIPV
Description: as §1

[3] = molecular target: CYP2C9 (Homo sapiens, UniProt P11712); assay: Cytochrome P450 inhibition assay; format: in vitro ADME
Sequence of CYP2C9 (P11712 whole entry): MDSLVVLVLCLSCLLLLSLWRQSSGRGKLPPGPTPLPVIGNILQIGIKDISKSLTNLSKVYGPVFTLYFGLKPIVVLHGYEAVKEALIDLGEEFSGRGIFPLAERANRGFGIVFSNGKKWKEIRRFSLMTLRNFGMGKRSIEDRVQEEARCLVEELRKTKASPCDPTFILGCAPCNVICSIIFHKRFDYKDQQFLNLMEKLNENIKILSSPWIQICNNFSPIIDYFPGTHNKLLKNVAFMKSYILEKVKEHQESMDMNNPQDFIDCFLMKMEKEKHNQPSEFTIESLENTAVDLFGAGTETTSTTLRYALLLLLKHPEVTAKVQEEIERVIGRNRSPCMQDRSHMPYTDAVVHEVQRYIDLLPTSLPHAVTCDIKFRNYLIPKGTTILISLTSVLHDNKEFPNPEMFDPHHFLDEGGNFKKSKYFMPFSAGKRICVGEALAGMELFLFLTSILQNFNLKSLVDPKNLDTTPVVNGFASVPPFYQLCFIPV
Description: as §1

[4] = molecular target: CYP2D6 (Homo sapiens, UniProt P10635); assay: Cytochrome P450 inhibition assay; format: in vitro ADME
Sequence of CYP2D6 (P10635 whole entry): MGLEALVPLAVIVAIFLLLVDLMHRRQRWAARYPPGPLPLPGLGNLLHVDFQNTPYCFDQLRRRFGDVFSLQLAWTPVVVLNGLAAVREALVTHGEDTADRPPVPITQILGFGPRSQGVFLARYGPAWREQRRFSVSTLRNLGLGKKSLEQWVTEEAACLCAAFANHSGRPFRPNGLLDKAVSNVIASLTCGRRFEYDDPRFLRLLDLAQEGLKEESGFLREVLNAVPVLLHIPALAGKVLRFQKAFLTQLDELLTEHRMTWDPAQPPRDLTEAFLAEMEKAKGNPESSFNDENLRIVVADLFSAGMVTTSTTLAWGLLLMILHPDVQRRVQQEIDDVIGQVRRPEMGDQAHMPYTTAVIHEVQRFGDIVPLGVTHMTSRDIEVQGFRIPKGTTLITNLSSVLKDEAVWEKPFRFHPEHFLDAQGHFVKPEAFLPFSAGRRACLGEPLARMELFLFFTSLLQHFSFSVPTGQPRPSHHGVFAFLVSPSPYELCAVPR
Description: as §1

[5] = molecular target: CYP3A4 (Homo sapiens, UniProt P08684); assay: Cytochrome P450 inhibition assay; format: in vitro ADME
Sequence of CYP3A4 (P08684 whole entry): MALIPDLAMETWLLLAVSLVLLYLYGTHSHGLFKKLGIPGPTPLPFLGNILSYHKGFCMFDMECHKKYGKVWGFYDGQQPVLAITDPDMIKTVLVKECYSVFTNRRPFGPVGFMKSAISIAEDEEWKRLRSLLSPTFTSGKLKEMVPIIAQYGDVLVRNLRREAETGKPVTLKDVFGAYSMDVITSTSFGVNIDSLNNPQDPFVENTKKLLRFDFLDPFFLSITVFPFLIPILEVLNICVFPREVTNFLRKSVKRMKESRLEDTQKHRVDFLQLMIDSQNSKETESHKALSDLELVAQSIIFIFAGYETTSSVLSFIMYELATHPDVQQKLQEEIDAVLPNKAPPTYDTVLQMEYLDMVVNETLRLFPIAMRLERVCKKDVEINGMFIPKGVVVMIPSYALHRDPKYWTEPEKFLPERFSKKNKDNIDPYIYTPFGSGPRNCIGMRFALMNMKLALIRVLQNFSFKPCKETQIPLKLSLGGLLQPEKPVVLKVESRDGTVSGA
Description: as §1

[6] = system: Salmonella typhimurium (TA97a, TA98, TA100, TA102, TA1535); settings: for FI / TA100 colony count (Rep 1-3) / TA100 colony count, Mean: dose range
Description: This Mutagenicity Assessment (Ames Assay) evaluated the potential of the test article extracts to induce histidine (his) reversion in S. typhimurium (his− to his+) or tryptophan (trp) reversion in E. coli (trp− to trp+) caused by base changes or frameshift mutations in the genome of tester organisms.
This plate incorporation assay was conducted with five strains of Salmonella typhimurium (TA97a, TA98, TA100, TA102, and TA1535) and one strain of Escherichia coli (WP2-uvrA^−) in the presence and absence of an exogenous mammalian activation system (S9). The test article was dissolved in 5% dextrose. A series of dilutions were then prepared in saline just prior to testing. A Range Finding Study was conducted for this assay to determine the appropriate doses for definitive mutagenicity assessment.
A stock solution of test article was prepared at 20.0 mg/mL as follows: 1.0 g test article was added to 15.0 mL of 0.1 HCl for 1 minute. The test article was stirred for 15 minutes at room temperature. Next 33.0 mL of deionized water was added and allowed to stir for 30 minutes. […] Lower doses were prepared by dilution in 5% dextrose from this stock immediately prior to use. To minimize any change of degradation, the test article solutions were kept on ice after preparation and until just prior to dosing procedures. The test article was administered in vitro, through a solvent compatible with the test system.
This assay has historically been used to detect mutation in a gene of a histidine requiring strain to produce a histidine independent strain or concordantly, to detect mutation in a gene of a tryptophan requiring strain to produce a tryptophan independent strain.
S. typhimurium strain TA1535 and E. coli strain Wp2-uvrA^− were received from American Type Culture Collection, Manassas, Va. […] All working stocks of test strains will be confirmed for genotypic markers and acceptable reversion rates.
Master plates of the tester strains were prepared from frozen working stocks. To create working cultures for each bacterial strain used in the assay, a single colony was transferred from the master plate into Oxoid nutrient broth and incubated, with shaking, at 37±2° C. until an optical density (at 650 nm) of 0.6-1.6 was reached. This overnight culture was used for the mutagenicity test and for genotypic confirmation. Genotype tests were performed.
For both the dose range and mutagenicity test, a top agar consisting of 0.6% Difco agar in 0.5% NaCl was melted and a solution of 0.5 mM L-histidine/0.5 mM biotin or 0.5 mM L-tryptophan was added to the melted top agar at a ratio of 10 mL per 100 mL agar, as required. The supplemented agar was aliquotted, 2 mL per tube and held at 45-47° C. To prepare the top agar for treatment, 0.1 mL of the test article or control, 0.1 mL of the bacterial culture and 0.5 mL of phosphate buffered saline were added to the molten agar. […] Metabolic activation was provided by adding 0.5 mL of the S9 mix in place of the PBS. […] All plates were counted using an automatic image analysis system. Negative control and test article treated plates were also examined for the presence of a bacterial lawn.
The in vitro metabolic activation system used in this assay was comprised of Sprague Dawley rat liver enzymes and a cofactor pool. […] Immediately prior to use, the S9 was thawed and mixed with a cofactor pool to contain 5% S9, 5 mM glucose 6-phosphate, 4 mM β-nicotine-adenine dinucleotide phosphate, 8 mM MgCl2 and 33 mM KCl in a 200 mM phosphate buffer at pH 7.4. The S9 was purchased from Moltox (Boone, N.C.) and maintained frozen at less than −70° C.
For the definitive assay, three dose levels were chosen ([…], and 5.0 mg/mL). This was equivalent to 2.0, 1.0, and 0.5 mg/plate. All treatments, including negative and positive control, were plated in triplicate against test strains TA97a, TA98, TA100, TA102, TA1535, and WP2-uvrA^− in the presence and absence of metabolic activation.

[7] = TA100, with S9 activation, 0.125 mg/plate
[8] = TA100, with S9 activation, 0.25 mg/plate
[9] = TA100, with S9 activation, 0.5 mg/plate
[10] = TA100, with S9 activation, 1.0 mg/plate
[11] = TA100, with S9 activation, 2.0 mg/plate
[12] = TA100, without S9 activation, 0.125 mg/plate
[13] = TA100, without S9 activation, 0.25 mg/plate
[14] = TA100, without S9 activation, 0.5 mg/plate
[15] = TA100, without S9 activation, 1.0 mg/plate
[16] = TA100, without S9 activation, 2.0 mg/plate

Sequence of CYP1A2 (P05177 whole entry): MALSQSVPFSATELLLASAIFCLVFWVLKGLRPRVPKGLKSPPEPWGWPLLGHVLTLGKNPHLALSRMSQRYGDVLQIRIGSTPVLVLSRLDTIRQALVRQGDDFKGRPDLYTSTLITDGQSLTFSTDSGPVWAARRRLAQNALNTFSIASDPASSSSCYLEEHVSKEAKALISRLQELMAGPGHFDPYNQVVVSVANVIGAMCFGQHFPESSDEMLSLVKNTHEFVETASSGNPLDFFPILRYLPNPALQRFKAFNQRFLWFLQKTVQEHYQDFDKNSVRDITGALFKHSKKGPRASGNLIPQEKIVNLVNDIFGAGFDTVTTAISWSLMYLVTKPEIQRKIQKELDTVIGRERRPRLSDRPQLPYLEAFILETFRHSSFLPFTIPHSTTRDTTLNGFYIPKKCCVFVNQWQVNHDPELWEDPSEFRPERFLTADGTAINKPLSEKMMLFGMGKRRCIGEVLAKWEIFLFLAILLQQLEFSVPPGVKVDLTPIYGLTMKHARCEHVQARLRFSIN

With `CN1CCCC1CCNC(=O)c1cn2c3c(c(N4CCC(c5cnccn5)C4)c(F)cc3c1=O)Oc1cc3ccccc3cc1-2` (stereo not shown) [CX-3543] the “inhibition of CYP1A2” value [1] was “No significant inhibition”, the “inhibition of CYP2C19” value [2] was “No significant inhibition” and the “inhibition of CYP2C9” value [3] was “No significant inhibition”. The IC50 ([3]; isoform 2C9, substrate Diclofenac) was greater than 10 µM, the “inhibition of CYP2D6” value [4] was “No significant inhibition” and the IC50 ([4]; isoform 2D6, substrate Dextromethorphan) was greater than 25 µM. For the same molecule, the “range in which only minor and partial inhibition of CYP3A4 was evident” value [5] was 1 to 3 µM, the IC50 ([5]; isoform 3A4, substrate Midazolam) was 1.4 µM and the IC50 ([5]; isoform 3A4, substrate Testosterone) was 3.3 µM. The “mutagenicity (reversion rates)” value ([6]; S. typhimurium, with and without S9) was “non-mutagenic”, the FI [6, 7] was 1.5 and the “TA100 colony count (Rep 1-3)” value [6, 7] was 175 and 177. For the same molecule, the “TA100 colony count, Mean” value [6, 7] was 175.7, the FI [6, 8] was 1.5 and the “TA100 colony count (Rep 1-3)” value [6, 8] was 185 and 177 and 189. For the same molecule, the “TA100 colony count, Mean” value [6, 8] was 183.7, the FI [6, 9] was 1.6 and the “TA100 colony count (Rep 1-3)” value [6, 9] was 182 and 190 and 193. The “TA100 colony count, Mean” value [6, 9] was 188.3, the FI [6, 10] was 1.4 and the “TA100 colony count (Rep 1-3)” value [6, 10] was 175 and 147 and 168. The “TA100 colony count, Mean” value [6, 10] was 163.3, the FI [6, 11] was 1.1 and the “TA100 colony count (Rep 1-3)” value [6, 11] was 111 and 131 and 137. The “TA100 colony count, Mean” value [6, 11] was 126.3, the FI [6, 12] was 1.1 and the “TA100 colony count (Rep 1-3)” value [6, 12] was 153 and 144 and 135. The “TA100 colony count, Mean” value [6, 12] was 144.0, the FI [6, 13] was 1.1 and the “TA100 colony count (Rep 1-3)” value [6, 13] was 154 and 148 and 146. The “TA100 colony count, Mean” value [6, 13] was 149.3, the FI [6, 14] was 1.1 and the “TA100 colony count (Rep 1-3)” value [6, 14] was 161 and 154 and 137. For the same molecule, the “TA100 colony count, Mean” value [6, 14] was 150.7, the FI [6, 15] was 1.0 and the “TA100 colony count (Rep 1-3)” value [6, 15] was 147 and 120 and 134. The “TA100 colony count, Mean” value [6, 15] was 133.7, the FI [6, 16] was 0.9 and the “TA100 colony count (Rep 1-3)” value [6, 16] was 126 and 117 and 122. For the same molecule, the “TA100 colony count, Mean” value [6, 16] was 121.7.

From patent publication US7507727B2, “Substituted quinobenzoxazine analogs and methods of using thereof” (Cylene Pharmaceuticals, Inc., priority 2003, dated 2009)
